# Measurements published in patent publication US11161888B2, “Method for regulating targeting of Cyclin Y (CCNY) protein to synapses” (KOREA INSTITUTE OF SCIENCE AND TECHNOLOGY, priority 2018, dated 2021).
# Entries after “also recorded” stand apart in the source; their conditions may differ.
# Tests used:
# PSD-95 = test: Acyl-biotinyl exchange (ABE) assay of PSD-95 palmitoylation (positive control) in HEK293T cells; assay type: cell-based; details: in the presence of 2-bromopalmitate, HEK293T cells (FIG. 3C)
# Protocol: (§1) All images are single-plane images. […] The scale bars are 5 (B and C) show the results of an acyl-biotinyl exchange (ABE) assay. CCNY-WT-EGFP or CCNY-Mut(C7, 8S)-EGFP were overexpressed in HEK293T cells, and the cells were subsequently treated with a palmitoylation blocker, 2-bromopalmitate (2-BP, 30 μM or 100 μM), for 4 hours prior to the ABE assay.
# (§2) The ABE assay was performed as previously described (Wan et al., 2007) with minor modifications. Briefly, HEK293T cells were transfected with CCNY-WT-EGFP, CCNY-Mut(C7,8S)-EGFP, or PSD-95-WT-EGFP. PSD-95-WT-EGFP was transfected with or without DHHC2-HA. Twenty four hours after transfection, the cells were lysed in lysis buffer (150 mM NaCl, 50 mM Tris, 5 mM EDTA, protease inhibitor cocktail, 1 mM PMSF, pH 7.4) with 1.7% Triton X-100 and 10 mM N-ethylmaleimide (NEM) for 1 hour at 4° C. The cell lysates were centrifuged at 250 g for 5 minutes at 4° C., and the resultant supernatants were applied to the chloroform-methanol (CM) precipitation methodology. […] The eluted samples in loading buffer (50 mM Tris-HCl, pH 6.8, 5% β-mercaptoethanol, 2% SDS, 0.01% bromophenol blue) were then boiled for 10 minutes at 95° C., applied to SDS-PAGE, and analyzed by immunoreactions with anti-CCNY (Proteintech Group), anti-PSD-95 (Thermo Scientific) and anti-GFP (Roche). […]
# CCNY = test: Acyl-biotinyl exchange (ABE) assay of CCNY palmitoylation in HEK293T cells; assay type: cell-based; details: 4 hours prior to ABE assay, HEK293T cells (FIG. 3B)
# Protocol: as §1, §2
# [1] = tested on: hippocampal neurons overexpressing CCNY-WT-EGFP; test: Confocal imaging of CCNY-WT-EGFP membrane association in neurons treated with palmitoylation blocker; assay type: cell-based, rat; details: 2-bromopalmitate 100 μM, 4 hours, hippocampal neurons (FIG. 1D)
# Protocol: Specifically, (A) is a confocal single-plane image of hippocampal neurons overexpressing EGFP-tagged CCNY-WT. […] The scale bars are 20 μm (top) and 5 μm (bottom). […] The scale bar is 20 μm.
# HEK 293T cells were grown in DMEM (Gibco) supplemented with 10% fetal bovine serum. Hippocampal neuronal cultures were prepared from E18 Sprague-Dawley (SD) rat embryos. The hippocampal neurons were grown on poly-D-lysine ([…]; Sigma)-coated 18 mm glass coverslips and maintained for 10 to 21 days in vitro (DIV) in 12-well plates containing B27 and Glutamax-supplemented Neurobasal medium (Gibco) at 37° C. in an incubator equilibrated with 5% CO2 (Cho et al., 2015). The culture contains glial cells that were grown up to 70% to 80% confluency, where further growth was inhibited by treatment of 5-fluoro-2′-deoxyuridine (FUdR) ([…]; Sigma).
# Neurons were transfected at 10 to 15 DIV using Lipofectamine 2000 (Invitrogen) for 1 to 6 days, and then experiments were performed at 14 to 17 DIV. All experiments handling animals and their embryos were performed in accordance with the guidelines and regulations of the Korea Institute of Science and Technology (KIST). All experimental protocols were approved by the KIST Institutional Animal Care and Use Committee (IACUC; approval number 2018-048). […]
smiles,measurement,setting,value
CCCCCCCCCCCCCCC(Br)C(=O)O (stereo not shown) [2-bromopalmitate],palmitoylation of PSD-95 (ABE assay),PSD-95,inhibited
same,palmitoylation of CCNY-WT-EGFP (ABE assay),CCNY; 2-bromopalmitate 30 μM,no palmitoylation was detected; also recorded: blocked
same,palmitoylation of CCNY-WT-EGFP (ABE assay),CCNY; 2-bromopalmitate 100 μM,no palmitoylation was detected; also recorded: blocked
same,membrane-associated localization of CCNY-WT-EGFP on the neuronal cell surface,[1],altered
